Data published in US8232407B2, “Nitrogenous heterocyclic compounds with insecticidal activity, and the preparation and use thereof” (East China University of Science and Technology, priority 2008, dated 2012).

What was measured:
Type in all cases: in vivo
Conditions in all cases: in vivo
Plutella xylostella = experiment: Insecticidal activities to diamondback moth, feeding dipped leaves
Method: (§1) Mortality (%)=(the number of the survival aphis in control group−the number of the survival aphis in the treatment group)/the number of the survival aphis in control group×100%
(4): Insecticidal Activities to Diamondback Moth
Diamondback moth (Plutella xylostella) was tested by the way of feeding dippedleaves. Fresh cabbage leaves were immersed in above mentioned solution for 3 seconds, dried at room temperature, and fed to the tested insects. Each treatment was tested with 10 insects and repeated for 3 tumblers (3 times), while water was used as control. The number of killed insects was counted after 24 hours to calculate the mortality according to the above mentioned formula.

Aphis craccivoral = experiment: Insecticidal activities to aphids, immersion method
Method: (1): Insecticidal Activities to Aphids
Aphis (Aphis craccivoral), which belongs to Homoptera and has a piercing-sucking mouthpart, is a common insect for agricultural plant. Aphis craccivoral was tested by immersion method.
Procedure: exactly weighed various samples were independently added to N,N-dimethylformamide to form 10 g/L stock solutions. The stock solutions were diluted with 0.2 mL/L aqueous Triton X-100 solution to a concentration of 500 ppm. After stably sucking on bean sprout, the wingless adult aphis together with bean sprout were dipped into 500 ppm dilution, taken out after 5 seconds, and the excess dilution was sucked off with bibulous paper. The treated wingless adult aphis was incubated in clean vessel at a constant temperature of 23° C. Each concentration was repeated for 3 times and the control group was treated with 0.2mL/L aqueous Triton X-100 solution. The number of killed aphis was counted after 24 hours and the mortality was to calculated according to the following formula:
as §1

Nilaparvata lugens = experiment: Insecticidal activities to plant hopper, spraying method
Method: as §1
(2): Insecticidal Activities to Plant hopper
Plant hopper (Nilaparvata lugens), which belongs to Homoptera and has a piercing-sucking mouthpart, is a common insect for agricultural plant. Nilaparvata lugens was tested by spraying method.
Procedure: the test compound was exactly formulated with acetone to form solutions having concentrations of 500, 250, 100, 50, 25, 12.5, 6.25, 3.13, 1.57 and 0.79 ppm, respectively. Aqueous acetone solution was used as control. Each treatment was repeated for 3 tumblers (3 times). Two ml of solution was sprayed uniformly to each tumbler with a mini manual sprayer. 10 insects were introduced to every basin 6 hours before spraying. Three series of experiments were conducted. The number of killed insects was counted after 24 hours to calculate the mortality according to the above mentioned formula.

[1] = system: Pseudaletia separate Walker; experiment: Insecticidal activities to armyworm, leaf dipping and feeding
Method: as §1
(3): Insecticidal Activities to Armyworm
Armyworm (Pseudaletia separate Walker) was tested by the way of leaf dipping and feeding. The test compound was exactly formulated with acetone into solutions having concentrations of 500, 250, 100, 50, 25, 12.5, 6.25, 3.13 and 1.57 ppm, respectively. Aqueous acetone solution was used as control. Fresh maize leaves were immersed in the solution for 3 seconds, dried at room temperature, and fed to the tested insects. Each treatment was tested with 10 insects and repeated for 3 tumblers (3 times). The number of killed insects was counted after 24 hours to calculate the mortality according to the above mentioned formula.

Compound	Plutella xylostella Mortality (%) 500 ppm (Plutella xylostella) [%]	Aphis craccivoral Mortality (%) 500 ppm (Aphis craccivoral) [%]	Nilaparvata lugens Mortality (%) 500 ppm (Nilaparvata lugens) [%]	Pseudaletia separate Walker Mortality (%) 500 ppm [1] [%]
CC(c1ccc(Cl)nc1)N1CCN=C1C(=Cc1ccco1)[N+](=O)[O-] (racemic) [Compound 121]	56	100	100	100
CCN(Cc1ccc(Cl)nc1)C(=NC)C(=C(C)c1ccc([N+](=O)[O-])s1)[N+](=O)[O-] [Compound 202]	–	100	100	–
CCN(Cc1ccc(Cl)nc1)C(=NC)C(=C(C)c1ccc(Cl)s1)[N+](=O)[O-] [Compound 203]	–	100	100	–
CCN(Cc1ccc(Cl)nc1)C(=NC)C(=C(C)c1ccc[nH]1)[N+](=O)[O-] [Compound 204]	–	92	100	–
CCN(C(=NC)C(=Cc1ccco1)[N+](=O)[O-])C(C)c1ccc(Cl)nc1 (stereo not shown) [Compound 205]	–	56	87	–
CCN(C(=NC)C(=Cc1ccoc1)[N+](=O)[O-])C(C)c1ccc(Cl)nc1 (stereo not shown) [Compound 206]	–	65	44	–
CCN(C(=NC)C(=Cc1ccc([N+](=O)[O-])o1)[N+](=O)[O-])C(C)c1ccc(Cl)nc1 (stereo not shown) [Compound 207]	–	94	100	–
CCN(C(=NC)C(=Cc1ccc(Cl)o1)[N+](=O)[O-])C(C)c1ccc(Cl)nc1 (stereo not shown) [Compound 208]	–	42	100	–
CCN(C(=NC)C(=Cc1ccc(Br)o1)[N+](=O)[O-])C(C)c1ccc(Cl)nc1 (stereo not shown) [Compound 209]	–	88	100	–
CCN(C(=NC)C(=Cc1cccs1)[N+](=O)[O-])C(C)c1ccc(Cl)nc1 (stereo not shown) [Compound 210]	–	100	100	–
CCN(C(=NC)C(=Cc1ccc[nH]1)[N+](=O)[O-])C(C)c1ccc(Cl)nc1 (stereo not shown) [Compound 211]	–	73	73	–
CN=C(C(=C(C)c1ccc([N+](=O)[O-])o1)[N+](=O)[O-])N(C)C(C)c1ccc(Cl)nc1 (stereo not shown) [Compound 212]	–	96	100	–
CN=C(C(=C(C)c1ccsc1)[N+](=O)[O-])N(C)C(C)c1ccc(Cl)nc1 (stereo not shown) [Compound 213]	–	89	68	–
CN=C(C(=C(C)c1ccc([N+](=O)[O-])s1)[N+](=O)[O-])N(C)C(C)c1ccc(Cl)nc1 (stereo not shown) [Compound 214]	–	98	100	–
CN=C(C(=C(C)c1ccc(Cl)s1)[N+](=O)[O-])N(C)C(C)c1ccc(Cl)nc1 (stereo not shown) [Compound 215]	–	100	100	–
CN=C(C(=C(C)c1ccc[nH]1)[N+](=O)[O-])N(C)C(C)c1ccc(Cl)nc1 (stereo not shown) [Compound 216]	–	100	100	–
CN=C(C(=Cc1ccc([N+](=O)[O-])o1)[N+](=O)[O-])N(C)Cc1cnc(Cl)s1 [Compound 217]	–	77	43	–
CN=C(C(=Cc1ccc(Cl)o1)[N+](=O)[O-])N(C)Cc1cnc(Cl)s1 [Compound 218]	–	88	86	–
CN=C(C(=Cc1ccc(Br)o1)[N+](=O)[O-])N(C)Cc1cnc(Cl)s1 [Compound 219]	–	87	87	–
CN=C(C(=Cc1cccs1)[N+](=O)[O-])N(C)Cc1cnc(Cl)s1 [Compound 220]	–	80	67	–
CN=C(C(=Cc1ccsc1)[N+](=O)[O-])N(C)Cc1cnc(Cl)s1 [Compound 221]	–	78	87	–
CN=C(C(=Cc1ccc([N+](=O)[O-])s1)[N+](=O)[O-])N(C)Cc1cnc(Cl)s1 [Compound 222]	–	46	67	–

Compound	Plutella xylostella Mortality (%) 500 ppm (Plutella xylostella) [%]	Aphis craccivoral Mortality (%) 500 ppm (Aphis craccivoral) [%]	Nilaparvata lugens Mortality (%) 500 ppm (Nilaparvata lugens) [%]	Pseudaletia separate Walker Mortality (%) 500 ppm [1] [%]
CN=C(C(=Cc1ccc(Cl)s1)[N+](=O)[O-])N(C)Cc1cnc(Cl)s1 [Compound 223]	–	65	53	–
CN=C(C(=Cc1ccc[nH]1)[N+](=O)[O-])N(C)Cc1cnc(Cl)s1 [Compound 224]	–	32	52	–
CCN(Cc1cnc(Cl)s1)C(=NC)C(=Cc1ccco1)[N+](=O)[O-] [Compound 225]	–	90	78	–
CCN(Cc1cnc(Cl)s1)C(=NC)C(=Cc1ccoc1)[N+](=O)[O-] [Compound 226]	–	68	49	–
CCN(Cc1cnc(Cl)s1)C(=NC)C(=Cc1ccc([N+](=O)[O-])o1)[N+](=O)[O-] [Compound 227]	–	100	100	–
CCN(Cc1cnc(Cl)s1)C(=NC)C(=Cc1ccc(Cl)o1)[N+](=O)[O-] [Compound 228]	–	100	100	–
CCN(Cc1cnc(Cl)s1)C(=NC)C(=Cc1ccc([N+](=O)[O-])s1)[N+](=O)[O-] [Compound 229]	–	65	75	–
CCN(Cc1cnc(Cl)s1)C(=NC)C(=Cc1ccc(Cl)s1)[N+](=O)[O-] [Compound 230]	–	75	50	–
CCN(Cc1cnc(Cl)s1)C(=NC)C(=Cc1ccc[nH]1)[N+](=O)[O-] [Compound 231]	–	37	76	–
CN=C(C(=Cc1ccco1)[N+](=O)[O-])N(C)Cc1ccc(Cl)nc1 [Compound 232]	–	96	56	–
CN=C(C(=Cc1ccoc1)[N+](=O)[O-])N(C)Cc1ccc(Cl)nc1 [Compound 233]	–	80	86	–
CN=C(C(=Cc1ccc(Cl)o1)[N+](=O)[O-])N(C)Cc1ccc(Cl)nc1 [Compound 234]	–	37	44	–
CN=C(C(=Cc1ccc(Br)o1)[N+](=O)[O-])N(C)Cc1ccc(Cl)nc1 [Compound 235]	–	91	86	–
CN=C(C(=Cc1cccs1)[N+](=O)[O-])N(C)Cc1ccc(Cl)nc1 [Compound 236]	–	82	79	–
CN=C(C(=Cc1ccsc1)[N+](=O)[O-])N(C)Cc1ccc(Cl)nc1 [Compound 237]	–	87	98	–
CN=C(C(=Cc1ccc([N+](=O)[O-])s1)[N+](=O)[O-])N(C)Cc1ccc(Cl)nc1 [Compound 238]	–	91	98	–
CN=C(C(=Cc1ccc(Cl)s1)[N+](=O)[O-])N(C)Cc1ccc(Cl)nc1 [Compound 239]	–	58	34	–
CN=C(C(=Cc1ccc[nH]1)[N+](=O)[O-])N(C)Cc1ccc(Cl)nc1 [Compound 240]	–	77	68	–
CCN(Cc1ccc(Cl)nc1)C(=NC)C(=Cc1ccco1)[N+](=O)[O-] [Compound 241]	–	68	76	–
CCN(Cc1ccc(Cl)nc1)C(=NC)C(=Cc1ccoc1)[N+](=O)[O-] [Compound 242]	–	100	100	–
CCN(Cc1ccc(Cl)nc1)C(=NC)C(=Cc1ccc[nH]1)[N+](=O)[O-] [Compound 243]	–	96	100	–
